Where “and” joins values, the source holds several entries; their conditions need not be identical. Equal values may be shown once.
Key:
HepG2 (PSMA−) cells [1] = test: Apoptosis by Annexin V-FITC/PI flow cytometry, HepG2; conditions: 72 h
Experimental: (§6) The apoptotic effect was determined by counting the apoptosis ratios (including the early and late apoptosis ratios).
(§7) To determine early apoptosis and secondary necrosis, LNCaP-FGC (PSMA^+) and HepG2 (PSMA^−) cells were stained with annexin-V FITC apoptosis detection kit (Beijing BioDee Biotech. Co., Ltd., Beijing, China) as per the manufacturer’s instructions. […] The resulting pellet was mixed with 200 µL binding buffer of the Annexin V-FITC kit, then 5 µL FITC labeled annexin V was added and mixed gently. After incubation at 4 °C for 10 min in the dark, 5 µL PI was added and mixed gently. Then the cells were immediately analyzed with a flow cytometry.

HepG2 (PSMA−) cells [2] = test: In vitro cellular uptake by CLSM, HepG2; format: cell-based, human; conditions: HepG2, 10 µM, 1 h and 4 h
Text: (§1) In addition to solubilization, the pentapeptide serves to mask the cytotoxicity by preventing nonspecific uptake of drug into cells due to the presence of negative charged amino acids. Upon cleavage of the prodrug by PSMA within the PSMA-expressing cells, the active compound was able to enter cells. […] The nucleus was stained with PI (red) and the fluorescence of CPT was pseudo-colored with blue.
(§2) To evaluate the cellular uptake of the CPT-HT-J-ZL12, LNCaP-FGC (PSMA^+) and HepG2 (PSMA^−) cells were seeded at a density of 1 × 10^4 cells/well in 35 mm glass bottom dishes with 1 mL complete 1640 medium. After incubation for 24 h, the culture medium was replaced with 2 mL of fresh medium containing 10 µM CPT-HT-J-ZL12. Then the cells were incubated further for different incubation time periods (1 and 4 h). Following the removal of the culture media, cells were washed with cold PBS, fixed with 70% ethanol for 30 min at 4 °C. Subsequently, the cells were stained with 5 μg/mL propidium iodide (excitation wavelength was 561 nm) for 5 min to visualize nucleus. The cells were observed by a UltraView RS confocal laser scanning microscopy (PerkinElmer, Waltham, MA, USA).

[3] = test system: LNCaP-FGC cells (PSMA-expressing); test: MTT cytotoxicity assay, LNCaP-FGC; format: cell-based, human
Experimental: (§3) The cytotoxicities of PSMA-activated prodrug CPT-HT-J-ZLn and PSMA hydrolysate CPT-D-GLn were evaluated by MTT assays on PSMA-expressing (PSMA^+) cancer cell LNCaP-FGC, non-PSMA-expressing (PSMA^−) cancer cells HepG2, MCF-7, Hela, DU145, and PC-3, and normal cells MDCK, LO2, respectively, using CPT as a positive control.
(§4) The human prostate cancer cell line (LNCaP-FGC), human prostate cancer cell line (PC-3), human prostate cancer cell line (DU-145), human breast cancer cell line (MCF-7), human hepatocellular carcinoma cell line (HepG2), human cervical cancer cell line (Hela), were obtained from the Chinese Academy of Medical Sciences and Peking Union Medical College. The cultures of the cells were maintained as a monolayer in RPMI 1640 or DMEM supplemented with 10% (v/v) heat inactivated fetal bovine serum and 1% (v/v) enicillin/streptomycin (Corning, New York, NY, USA) and incubated at 37 °C in a humidified atmosphere with 5% CO2. The tested compounds were dissolved in DMSO (Sigma, St. Louis, MO, USA) and added at required concentrations to the cell culture.
(§5) The cytotoxicity of all the tested compounds was evaluated in vitro via the MTT method against PSMA-expressing LNCaP-FGC cells and non-PSMA-expressing cells HepG2, Hela, MCF-7, DU145, PC-3 cells using CPT as the positive control. Tumor cells growing in the logarithmic phase were seeded in 96-well plates at a density 3 × 10^3 cells/well and incubated overnight. The following day, cells were then treated with serial dilutions of the tested compounds for 72 h. At the end of this incubation, 20 µL of 5 mg/mL methylthiazol tetrazolium (MTT) was added to each well and incubation proceeded at 37 °C for another 4 h. After the supernatant medium was thrown away, 150 µL dimethylsulphoxide (DMSO) were added to each well and absorbance was measured at 490 nm using a plate reader (BIORAD 550 spectrophotometer, Bio-rad Life Science Development Ltd., Berkeley, CA, USA). Experiments were performed in triplicate and the values were the average of three (n = 3) independent experiments. The concentration of the compound that results in 50% growth inhibition corresponds to the IC50. Tumor cell growth inhibitory rate was calculated using Equation (1): % inhibition = (1 − Sample group OD/Control group OD) × 100%(1)

LNCaP-FGC (PSMA+) cells [4] = test: Apoptosis by Annexin V-FITC/PI flow cytometry, LNCaP-FGC; conditions: 72 h
Experimental: as §6, §7

[5] = test system: MCF-7 cells (non-PSMA-expressing); test: cells; format: cell-based, human; conditions: MTT, 72 h, mean ± SD, n = 3; read-out: IC50 MCF-7
Experimental: as §3, §4, §5

[6] = test system: PC-3 cells (non-PSMA-expressing); test: cells; format: cell-based, human; conditions: MTT, 72 h, mean ± SD, n = 3; read-out: IC50 PC-3
Experimental: as §3, §4, §5

[7] = test system: DU145 cells (non-PSMA-expressing); test: cells; format: cell-based, human; conditions: MTT, 72 h, mean ± SD, n = 3; read-out: IC50 DU145
Experimental: as §3, §4, §5

[8] = test system: HepG2 cells (non-PSMA-expressing); test: cells; format: cell-based, human; conditions: MTT, 72 h, mean ± SD, n = 3; read-out: IC50 HepG2
Experimental: as §3, §4, §5

LNCaP-FGC (PSMA+) cells [9] = test: Cell cycle by PI staining flow cytometry, LNCaP-FGC; format: cell-based, human; conditions: for percentage of cells in S phase (Dip S): 72 h
Experimental: To further study CPT-HT-J-ZL12-induced growth inhibition, the cell cycle changes were evaluated on LNCaP-FGC (PSMA^+) using flow cytometric methods.
The cell cycle was measured using PI staining and flow cytometry analysis according to the instructions of the manufacturer (Cell Cycle and Apoptosis Analysis Kit, Beyotime Biotechnology, Jiangsu, China). LNCaP-FGC cells (2 × 10^4 cells/mL) in logarithmic growth phase were seeded in 6-well culture plate and incubated for 24 h at 37 °C in incubator with 5% CO2. After exposure to different concentrations of CPT-HT-J-ZL12 (0.63, 1.25, 2.50 μM) for 72 h, cells were harvested and washed twice with cold PBS. Then the cells were centrifuged at 2400× g for 10 min, resuspended in 1 mL 70% cold ethanol and fixed for 12 h at −20 °C. After being washed twice with cold PBS, the cells were incubated with 0.5 mL propidium iodide for 30 min at 37 °C. Detection of the cell cycle was carried out by the Flow Cytometer at 488 nm excitation wavelength

LNCaP-FGC (PSMA+) cells [10] = test: In vitro cellular uptake by CLSM, LNCaP-FGC; format: cell-based, human; conditions: 10 µM
Text: as §1, §2

[11] = test system: HeLa cells (non-PSMA-expressing); test: MTT cytotoxicity assay, HeLa; format: cell-based, human; conditions: 72 h, mean ± SD, n = 3
Experimental: as §3
The tested compounds were dissolved in DMSO (Sigma, St. Louis, MO, USA) and added at required concentrations to the cell culture.
as §5, with “experiments.” for “experiments. The concentration of the compound that results in 50% growth inhibition corresponds to the IC50. Tumor cell growth inhibitory rate was calculated using Equation (1): % inhibition = (1 − Sample group OD/Control group OD) × 100%(1)”

LO2 cells = test: cells; format: cell-based; conditions: MTT, 72 h, normal cells; read-out: IC50 LO2
Experimental: as §3, §5

MDCK cells = test: cells; format: cell-based; conditions: MTT, 72 h, normal cells; read-out: IC50 MDCK
Experimental: as §3, §5

## CC[C@@]1(OC(=O)CCCCCCCCCCCNC(=O)[C@@H](N)CCC(=O)N[C@@H](CCC(=O)N[C@@H](CCC(=O)N[C@@H](CC(=O)O)C(=O)N[C@@H](CCC(=O)O)C(=O)O)C(=O)O)C(=O)O)C(=O)OCc2c1cc1n(c2=O)Cc2cc3ccccc3nc2-1 [CPT-HT-J-ZL12, (3S,6S,11S,16S,21S)-21-amino-6-(carboxymethyl)-35-(((S)-4-ethyl-3,14-dioxo-3,4,12,14-tetrahydro-1H-pyrano[3′,4′:6,7]indolizino[1,2-b]quinolin-4-yl)oxy)-5,8,13,18,22,35-hexaoxo-4,7,12,17,23-pentaazapentatriacontane-1,3,11,16-tetracarboxylic acid]
HepG2 (PSMA−) cells [1]; HepG2, 20.00 µM
  percentage of apoptotic cells: 19.80%
HepG2 (PSMA−) cells [1]; HepG2, 40.00 µM
  percentage of apoptotic cells: 28.30%
HepG2 (PSMA−) cells [1]; HepG2, 80.00 µM
  percentage of apoptotic cells: 30.10%
HepG2 (PSMA−) cells [2]
  cellular uptake (blue CPT fluorescence): almost no blue fluorescence
[3]; LNCaP-FGC (PSMA+) vs DU145
  cytotoxicity against LNCaP-FGC higher than against DU145: 5 fold
[3]; LNCaP-FGC (PSMA+) vs Hela
  cytotoxicity against LNCaP-FGC higher than against Hela: 40 fold and ~ 40 fold
[3]; LNCaP-FGC (PSMA+) vs HepG2
  cytotoxicity against LNCaP-FGC higher than against HepG2: 40 fold and ~ 40 fold
[3]; LNCaP-FGC (PSMA+) vs MCF-7
  cytotoxicity against LNCaP-FGC higher than against MCF-7: 21 fold
[3]; MTT, 72 h, mean ± SD, n = 3, PSMA+, read-out: IC50 LNCaP-FGC
  IC50: 1 ± 0.2 µM
LNCaP-FGC (PSMA+) cells [4]; 0.63 µM
  apoptosis ratio (early and late): 29.90%
LNCaP-FGC (PSMA+) cells [4]; 1.25 µM
  apoptosis ratio (early and late): 33.30%
LNCaP-FGC (PSMA+) cells [4]; 2.50 µM
  apoptosis ratio (early and late): 48.90%
[5]
  IC50: 21.7 ± 4.96 µM
[6]
  IC50: 43 ± 3.69 µM
[7]
  IC50: 5.4 ± 1.22 µM
[8]
  IC50: > 40 µM
LNCaP-FGC (PSMA+) cells [9]; 1.25 µM
  percentage of cells in S phase (Dip S): 70.86%
LNCaP-FGC (PSMA+) cells [9]; 2.50 µM
  percentage of cells in S phase (Dip S): 83.66%
LNCaP-FGC (PSMA+) cells [9]; 0.63 to 2.50 µM
  effect on cell cycle: induce cell cycle arrest at the S phase
LNCaP-FGC (PSMA+) cells [10]; 1 h
  cellular uptake (blue CPT fluorescence intensity): stronger
LNCaP-FGC (PSMA+) cells [10]; 4 h
  cellular uptake (blue CPT fluorescence): increased with the incubation time
[11]
  IC50: > 40 µM
LO2 cells
  IC50: > 40 µM
MDCK cells
  IC50: > 40 µM

Source: paper PMC6214026, “PSMA-Oriented Target Delivery of Novel Anticancer Prodrugs: Design, Synthesis, and Biological Evaluations of Oligopeptide-Camptothecin Conjugates” (International Journal of Molecular Sciences, 2018)
